According to publication doi:10.1101/2025.10.16.682859v2 (biorxiv, 2025):

Assays:
[1] = target: T1, human argininosuccinate synthetase (ASS1) (Homo sapiens, UniProt P00966); experiment: differential scanning fluorimetry; format: binding; conditions: 5 mM ATP, 10 mM MgCl2, pH 8.0
T1 sequence (P00966 1-412): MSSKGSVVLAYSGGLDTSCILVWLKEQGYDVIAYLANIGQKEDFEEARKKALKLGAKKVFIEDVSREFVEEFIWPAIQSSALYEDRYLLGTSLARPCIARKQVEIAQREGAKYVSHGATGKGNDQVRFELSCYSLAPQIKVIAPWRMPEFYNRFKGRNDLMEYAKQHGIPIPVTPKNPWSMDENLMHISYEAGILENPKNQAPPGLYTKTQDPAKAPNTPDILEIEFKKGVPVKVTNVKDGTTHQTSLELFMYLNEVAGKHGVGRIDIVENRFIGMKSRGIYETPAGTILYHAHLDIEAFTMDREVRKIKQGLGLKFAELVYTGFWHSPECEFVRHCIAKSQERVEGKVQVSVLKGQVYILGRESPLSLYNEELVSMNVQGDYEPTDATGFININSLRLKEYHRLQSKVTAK

[2] = target: T2, human asparagine synthetase (ASNS) (Homo sapiens, UniProt P08243); experiment: HPLC end-point assay of L-asparagine formation; format: biochemical
T2 sequence (P08243 2-561): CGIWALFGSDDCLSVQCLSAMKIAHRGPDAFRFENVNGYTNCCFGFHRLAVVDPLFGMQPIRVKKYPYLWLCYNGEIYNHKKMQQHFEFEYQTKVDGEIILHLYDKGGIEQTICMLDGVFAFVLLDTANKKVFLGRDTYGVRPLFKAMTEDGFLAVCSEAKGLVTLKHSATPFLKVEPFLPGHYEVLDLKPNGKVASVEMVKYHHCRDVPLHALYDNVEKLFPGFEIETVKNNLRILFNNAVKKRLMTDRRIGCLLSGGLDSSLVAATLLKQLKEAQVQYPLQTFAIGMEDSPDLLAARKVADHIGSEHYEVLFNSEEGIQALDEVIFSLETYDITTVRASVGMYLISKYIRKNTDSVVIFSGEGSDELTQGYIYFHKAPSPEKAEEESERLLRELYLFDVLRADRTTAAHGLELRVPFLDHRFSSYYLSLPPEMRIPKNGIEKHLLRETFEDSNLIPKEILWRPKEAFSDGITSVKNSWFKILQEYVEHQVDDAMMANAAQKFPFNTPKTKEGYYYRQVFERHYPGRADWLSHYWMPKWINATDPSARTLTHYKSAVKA

[3] = target: T3, ASNS (endogenous, HEK-293A cells) (Homo sapiens, UniProt P08243); experiment: cellular thermal shift, immunoblot; format: cell-based; conditions: cells treated with 50 nM for 1 h, lysate heated 25-90 °C
T3 sequence (P08243 2-561): T2 sequence (P08243 2-561)

Tm [1] [°C]	IC50 [2] [nM]	Tm [3] [°C]	SMILES
47 to 52	–	–	Nc1ncnc2c1ncn2[C@@H]1O[C@H](COP(=O)(O)OP(=O)(O)OP(=O)(O)O)[C@@H](O)[C@H]1O [ATP]
–	500 ± 200	45 to 54	CC[C@H](N)C(=O)N1C[C@@H](c2ccc(F)cc2)[C@H](O)[C@@H]1C(=O)NC(c1ccccc1)c1ccccc1 [compound 17, ASX-173]
